Assay results published in patent US7553484B2, “Modulating neuronal outgrowth via the major histocompatibility complex class I (MHC I) molecule” (The Regents of the University of California, priority 2001, dated 2009).
“Also recorded” adds a separate entry of the source.

System: retinal explant neurite outgrowth
Test: Retina (alone) explant culture with and without recombinant MHC I (rsMHC I)
Type: cell-based, mouse
Settings: for overall protection against the effects of rsMHC I (summary): FIG. 5; for neurite outgrowth in cultures containing rsMHC I, compound added vs rsMHC I alone / neurite outgrowth with rsMHC I plus compound compared with control levels: ACPD 50 uM, cAMP 20 uM, Forskolin 5 uM; for neurite outgrowth in cultures containing rsMHC I, compound added vs rsMHC I alone: 3 days
Procedure: To rule out the possibility that the MHC I-tg thalami inhibit retinal growth indirectly due to an alteration in the milieu of neuroactive molecules they secrete, wt retinas were cultured alone, in the presence, or absence of recombinantly produced MHC I D^b (rMHC I). The rMHC I was obtained by transfecting COS cells with a recombinant plasmid that directs the expression of a MHC I D^b lacking a membrane anchor and harvesting the conditioned media.
A truncated MHC I ^Db mini-gene (containing exons 1-4 plus a stop codon) was subcloned into pIRES (Invitrogen). Due to the lack of a transmembrane spanning region (exons 5 and 6), this MHC I molecule is secreted. COS cells were transfected (using lipofectamine, GIBCO) with the parental plasmid, or the plasmid encoding soluble MHC I D^b. […] Forty eight hours later, the conditioned media was harvested and added to fresh explant co-cultures of wt retina and thalamus at final dilutions of 1:1, 1:4, 1:20 or 1:100. To some cultures, monoclonal antibodies to MHCI D^b or D^k were added to both the matrigel (before its solidification) and the media (0.005 mg/ml). Both the conditioned media and the antibodies were coded. The co-cultures were incubated for 4-5 days, fixed, and scored in a blinded fashion as described above. Duplicates of each group were tested simultaneously in 4 separate experiments.
E14 day embryos from C57Bl6 and Balb/c mice were dissected in Leibovitz's L-15 media (Gibco BRL). The retinas were isolated and placed in a matrigel matrix (Growth Factor Reduced Basement membrane matrix, Collaborative Biomedical Products) in a chamber slide (Fisher LabTech). The slides were then incubated at 37° C. for 60 minutes to solidify the gel. Neurobasal medium (Gibco BRL), containing L-glutamine, antibiotics and 1× B27 supplement) was added to each chamber (0.25 ml). Inhibition of axon outgrowth by rsMHC I was tested by addition of conditioned culture media from COS cells containing rsMHC I or control media to the normal culture media. Compounds that modulate cAMP levels were added at the following concentrations to the matrigel and the culture media: Forskolin (5 uM), a drug that activates adenyl cyclase and endogenous production of cAMP; and Rp-cAMPS (20 uM), the R diasteriomer of adenosine 3′,5′-(cyclic) phosphorothioate, a non-hydrolyzable antagonist of cAMP. The cultures were incubated further at 37° C., 5% CO2. After incubating for 3 days, the experiment was terminated by replacing the buffer with 4% PFA and storing the slides at 4° C. Statistical Analysis was done by Student's test.

Compound	overall protection against the effects of rsMHC I (summary)	retinal explant outgrowth in control cultures (media alone, no rsMHC I) (Rp-cAMPS 20 uM)	neurite outgrowth in cultures containing rsMHC I, compound added vs rsMHC I alone (Rp-cAMPS 20 uM)	neurite outgrowth in cultures containing rsMHC I, compound added vs rsMHC I alone (Rp-cAMPS 20 uM, listed as Rp-cAMPs)	neurite outgrowth with rsMHC I plus compound compared with control levels
Nc1ncnc2c1ncn2[C@@H]1O[C@@H]2CO[P@@](O)(=S)O[C@H]2[C@H]1O [Rp-cAMPS, R diasteriomer of adenosine 3′,5′-(cyclic) phosphorothioate]	very efficient at blocking the effects of rsMHC I	no effect	completely prevented the inhibitory effects of rsMHC I; also recorded: can reverse this inhibitory effect	completely prevented the inhibitory effects of rMHC I; also recorded: prevented the inhibitory action of rMHC I	
Nc1ncnc2c1ncn2[C@@H]1O[C@@H]2COP(=O)(O)O[C@H]2[C@H]1O [cAMP, cyclic adenosine monophosphate]	partially protective		significantly enhanced neurite outgrowth; also recorded: partially neutralize the inhibitory action of rMHC I		not statistically different from control levels
N[C@@]1(C(=O)O)CC[C@@H](C(=O)O)C1 [ACPD, 1-amino-(1S,3R)-cyclo pentanedicarboxylic acid]	partially protective		significantly enhanced neurite outgrowth; also recorded: partially neutralize the effects of rsMHC I		did not return to control levels
